The values that follow are results of earlier work, collected in patent US12364698B2 (Janssen Pharmaceutica NV, priority 2015, dated 2025).

For this data set the following is noted: at a pH of about 7.

`C=CC(=O)N1CCC[C@@H](n2nc(-c3ccc(Oc4ccccc4)cc3)c3c(N)ncnc32)C1` [Ibrutinib, 1-[(3R)-3-[4-amino-3-(4-phenoxyphenyl)-1H-pyrazolo[3,4 d]pyrimidin-1-yl]-1-piperidinyl]-2-propen-1-one]: the partition coefficient result is recorded as “about 4”.
